Assay results reported in US8415289B2, “Bacterial-derived BLIS for treatment of acne” (The Trustees of the University of Pennsylvania, priority 2005, dated 2013).

Tested on: S. salivarius
Experiment: Etest MIC susceptibility of clinical S. salivarius isolates to antibiotics
Format: cell-based, Streptococcus salivarius
Experimental: The dorsum of the tongue was swabbed and the specimen collected using a BBL CultureSwab Collection and Transport System (Difco, Detroit, Mich.). The sterile cotton stick was drawn across the dorsum of the tongue 10-12 times while maintaining pressure. Swabs were stored at 4° C. for no more than 24 h. Cultures were diluted 10 and 100-fold using Tryptic Soy Broth (Difco, Detroit, Mich.), and diluted cultures directly inoculated on mitis-salivarius agar (Difco, Detroit, Mich.) using sterile technique. Plates were incubated upside down at 37° C. in 5% carbon dioxide for 24 h. Colonies were screened by morphology consistent with S. salivarius (large, soft, fluffy colonies due to levan production from the sucrose in the agar). This is the standard method used to screen for S. salivarius (24;24). All samples identified based on visual morphology were frozen and stored for subsequent testing (BLIS assays and resistance testing).
Colonies identified as S. salivarius by morphology were tested for susceptibility to clindamycin, erythromycin and tetracycline using the Etest MIC method. Etest strips were purchased from AB Biodisk (Piscataway, N.J., USA), and were used in accordance with the manufacturer's instructions. The concentration gradient of each antimicrobial agent on the Etest strips was 0.016-256 ug/ml. MICs were read directly from the test strip where the zone of inhibition intersected the MIC scale on the strip. Zones of inhibition were compared with standard values (NCCLS M100-S10) to assign a designation of “susceptible,” “intermediate”, or “resistant” to each antimicrobial agent.
Secondarily, determination was made as to whether the S. salivarius recovered was resistant to clindamycin, erythromycin, and tetracycline. Chi-squared analyses were performed to detect a difference among Groups Ia, Ib, and II. We further stratified the acne patients into those receiving oral and/or topical antibiotics, and no antibiotics. These findings were represented as simple percentages, allowing for qualitative comparisons among these groups. […] This accounts for the discrepancy between the numerators in Table 2 and the denominators in Table 3.

[1] = Group II: no acne, no antibiotics, 15 isolates, NCCLS M100-S10
[2] = Group Ia: acne, using antibiotics, 13 isolates, NCCLS M100-S10
[3] = Group Ib: acne, not using antibiotics, 5 isolates, NCCLS M100-S10

SMILES | Proportion of antibiotic-resistant Streptococcus salivarius in the oropharynx [1] | Proportion of antibiotic-resistant Streptococcus salivarius in the oropharynx (Group II: no acne, no antibiotics, 15 isolates, NCCLS M100-S10, listed as erythromycin) | Proportion of antibiotic-resistant Streptococcus salivarius in the oropharynx [2] | Proportion of antibiotic-resistant Streptococcus salivarius in the oropharynx (Group Ia: acne, using antibiotics, 13 isolates, NCCLS M100-S10, listed as erythromycin) | Proportion of antibiotic-resistant Streptococcus salivarius in the oropharynx [3] | Proportion of antibiotic-resistant Streptococcus salivarius in the oropharynx (Group Ib: acne, not using antibiotics, 5 isolates, NCCLS M100-S10, listed as erythromycin) | Proportion of antibiotic-resistant Streptococcus salivarius in the oropharynx (Group II: no acne, no antibiotics, 15 isolates, NCCLS M100-S10, listed as tetracycline) | Proportion of antibiotic-resistant Streptococcus salivarius in the oropharynx (Group Ia: acne, using antibiotics, 13 isolates, NCCLS M100-S10, listed as tetracycline) | Proportion of antibiotic-resistant Streptococcus salivarius in the oropharynx (Group Ib: acne, not using antibiotics, 5 isolates, NCCLS M100-S10, listed as tetracycline) | Proportion of antibiotic-resistant Streptococcus salivarius in the oropharynx (Group II: no acne, no antibiotics, 15 isolates, NCCLS M100-S10, listed as clindamycin) | Proportion of antibiotic-resistant Streptococcus salivarius in the oropharynx (Group Ia: acne, using antibiotics, 13 isolates, NCCLS M100-S10, listed as clindamycin) | Proportion of antibiotic-resistant Streptococcus salivarius in the oropharynx (Group Ib: acne, not using antibiotics, 5 isolates, NCCLS M100-S10, listed as clindamycin)
CC[C@H]1OC(=O)[C@H](C)[C@@H](O[C@H]2C[C@@](C)(OC)[C@@H](O)[C@H](C)O2)[C@H](C)[C@@H](O[C@@H]2O[C@H](C)C[C@H](N(C)C)[C@H]2O)[C@](C)(O)C[C@@H](C)C(=O)[C@H](C)[C@@H](O)[C@]1(C)O [Erythromycin, erythromycin] | 3/15 (20%) | 20% | 9/13 (69%) | 69% | 2/5 (40%) | 40% |  |  |  |  |  | 
CN(C)[C@@H]1C(O)=C(C(N)=O)C(=O)[C@@]2(O)C(O)=C3C(=O)c4c(O)cccc4[C@@](C)(O)[C@H]3C[C@@H]12 [Tetracycline, tetracycline] | 4/15 (27%) |  | 10/13 (77%) |  | 2/5 (40%) |  | 27% | 77% | 40% |  |  | 
CCC[C@@H]1C[C@@H](C(=O)N[C@@H]([C@H]2O[C@H](SC)[C@H](O)[C@@H](O)[C@H]2O)[C@H](C)Cl)N(C)C1 [Clindamycin, clindamycin] | 1/15 (7%) |  | 9/13 (69%) |  | 1/5 (20%) |  |  |  |  | 7% | 69% | 20%
